According to article PMC5428333, “Novel protein acetyltransferase, Rv2170, modulates carbon and energy metabolism in Mycobacterium tuberculosis” (Scientific Reports, 2017):

Target: T1, ICDH1 (Rv3339c) (Mycobacterium tuberculosis, UniProt P9WKL1)
T1 construct: gene icd-1
Experiment: NADPH formation at […] nm
Type: biochemical
Conditions: 2 mM NADP+, 0.25 mM DL-isocitrate, 10 mM MgCl2, 5 mM MnCl2, 20 mM Tris-HCl pH 7.5, room temperature

T1 sequence (P9WKL1 whole entry): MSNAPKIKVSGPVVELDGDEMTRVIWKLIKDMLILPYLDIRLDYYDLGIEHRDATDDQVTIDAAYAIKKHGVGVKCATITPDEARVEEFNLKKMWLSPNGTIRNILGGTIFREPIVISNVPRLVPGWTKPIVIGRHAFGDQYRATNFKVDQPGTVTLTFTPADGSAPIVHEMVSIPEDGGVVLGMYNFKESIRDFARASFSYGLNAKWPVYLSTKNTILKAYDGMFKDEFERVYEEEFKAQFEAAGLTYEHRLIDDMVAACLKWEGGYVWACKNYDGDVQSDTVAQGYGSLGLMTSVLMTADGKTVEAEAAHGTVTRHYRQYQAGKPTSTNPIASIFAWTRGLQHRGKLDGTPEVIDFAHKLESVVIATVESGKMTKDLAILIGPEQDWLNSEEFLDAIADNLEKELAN

**Q.** With `NC(=O)c1ccc[n+]([C@@H]2O[C@H](COP(=O)(O)OP(=O)(O)OC[C@H]3O[C@@H](n4cnc5c(N)ncnc54)[C@H](OP(=O)(O)O)[C@@H]3O)[C@@H](O)[C@H]2O)c1` [NADP^+] as the compound, how does the “NADPH formation at 340 nm” value read?
**A.** The value was “monitoring the time dependent reduction of NADP^+ to NADPH”.
